Columns and labels:
[1] = DRUGMATRIX: Leukotriene, BLT (LTB4) radioligand binding (ligand: [3H]LTB4); format: cell membranes, Membrane; settings: u-937; Not Active = under 50% inhibition at 10 µM
[2] = target: T1, Cysteinyl leukotriene receptor 1 (Homo sapiens, UniProt Q9Y271); format: cell membranes, Membrane; settings: cho-k1; further: in other assays of this panel Not Active means under 50% inhibition at 10 µM
T1 sequence (Q9Y271 whole entry): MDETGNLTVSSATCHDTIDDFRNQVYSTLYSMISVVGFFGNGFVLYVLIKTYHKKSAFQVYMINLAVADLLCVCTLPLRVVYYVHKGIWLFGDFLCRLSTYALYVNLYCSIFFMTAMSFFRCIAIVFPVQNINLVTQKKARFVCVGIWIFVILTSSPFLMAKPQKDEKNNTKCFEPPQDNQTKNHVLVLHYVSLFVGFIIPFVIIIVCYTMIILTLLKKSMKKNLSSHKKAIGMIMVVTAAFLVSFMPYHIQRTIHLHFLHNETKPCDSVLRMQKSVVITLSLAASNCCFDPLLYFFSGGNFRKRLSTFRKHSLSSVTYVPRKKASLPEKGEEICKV

[3] = target: T2, C-X-C chemokine receptor type 1 (Homo sapiens, UniProt P25024); further: in other assays of this panel Not Active means under 50% inhibition at 10 µM
T2 sequence (P25024 whole entry): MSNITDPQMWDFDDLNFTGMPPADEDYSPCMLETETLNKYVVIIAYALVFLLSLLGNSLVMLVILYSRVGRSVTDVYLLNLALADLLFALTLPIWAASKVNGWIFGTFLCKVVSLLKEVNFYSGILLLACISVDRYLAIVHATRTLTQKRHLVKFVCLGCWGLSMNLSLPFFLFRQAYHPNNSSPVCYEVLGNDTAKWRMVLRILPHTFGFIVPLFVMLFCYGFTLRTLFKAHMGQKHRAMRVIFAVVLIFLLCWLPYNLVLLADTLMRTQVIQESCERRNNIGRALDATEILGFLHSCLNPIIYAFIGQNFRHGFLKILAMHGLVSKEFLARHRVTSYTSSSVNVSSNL

[4] = target: C-C chemokine receptor type 2 (Homo sapiens, UniProt P41597); format: cell membranes, Membrane; settings: cho-k1; further: in other assays of this panel Not Active means under 50% inhibition at 10 µM
[5] = target: T3, Amine oxidase [flavin-containing] A (Homo sapiens, UniProt P21397); test: DRUGMATRIX: Monoamine Oxidase MAO-A enzyme inhibition (substrate: Kynuramine); parameters: species or system BTI-TN-5B1-4; settings: bti-tn-5b1-4; Not Active = under 50% inhibition at 10 µM
T3 sequence (P21397 whole entry): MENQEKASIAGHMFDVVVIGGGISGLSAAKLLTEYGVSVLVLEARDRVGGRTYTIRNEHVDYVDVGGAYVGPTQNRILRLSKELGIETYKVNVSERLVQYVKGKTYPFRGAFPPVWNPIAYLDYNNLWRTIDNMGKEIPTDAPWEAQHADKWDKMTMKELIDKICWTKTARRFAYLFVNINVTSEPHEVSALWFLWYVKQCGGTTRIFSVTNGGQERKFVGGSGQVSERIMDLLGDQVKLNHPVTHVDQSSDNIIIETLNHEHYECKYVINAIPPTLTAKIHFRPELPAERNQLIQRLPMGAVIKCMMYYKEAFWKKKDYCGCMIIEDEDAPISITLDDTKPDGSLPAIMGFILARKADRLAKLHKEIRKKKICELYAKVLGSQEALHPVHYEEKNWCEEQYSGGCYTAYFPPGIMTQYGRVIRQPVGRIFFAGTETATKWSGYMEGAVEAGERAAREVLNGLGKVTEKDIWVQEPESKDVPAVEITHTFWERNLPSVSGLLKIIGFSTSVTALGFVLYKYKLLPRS

[6] = target: T4, Type-2 angiotensin II receptor (Homo sapiens, UniProt P50052); test: biochemical; format: cell-based, CHO-K1; settings: cho-k1; further: in other assays of this panel Not Active means under 50% inhibition at 10 µM
T4 sequence (P50052 whole entry): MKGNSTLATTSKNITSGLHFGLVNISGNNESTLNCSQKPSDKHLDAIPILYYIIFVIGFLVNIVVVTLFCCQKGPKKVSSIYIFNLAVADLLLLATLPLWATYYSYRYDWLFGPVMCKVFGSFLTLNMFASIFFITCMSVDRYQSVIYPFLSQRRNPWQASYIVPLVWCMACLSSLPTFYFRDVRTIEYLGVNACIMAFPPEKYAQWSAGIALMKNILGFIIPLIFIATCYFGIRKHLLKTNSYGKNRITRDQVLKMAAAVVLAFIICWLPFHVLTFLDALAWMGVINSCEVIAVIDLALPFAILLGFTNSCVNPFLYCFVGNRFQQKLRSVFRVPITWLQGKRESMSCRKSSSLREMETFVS

Insulin receptor = Insulin receptor (Rattus norvegicus, UniProt P15127); format: cell membranes, Wistar, Liver, Membrane; further: in other assays of this panel Not Active means under 50% inhibition at 10 µM
Chain of Insulin receptor (P15127 27-759 limits assumed): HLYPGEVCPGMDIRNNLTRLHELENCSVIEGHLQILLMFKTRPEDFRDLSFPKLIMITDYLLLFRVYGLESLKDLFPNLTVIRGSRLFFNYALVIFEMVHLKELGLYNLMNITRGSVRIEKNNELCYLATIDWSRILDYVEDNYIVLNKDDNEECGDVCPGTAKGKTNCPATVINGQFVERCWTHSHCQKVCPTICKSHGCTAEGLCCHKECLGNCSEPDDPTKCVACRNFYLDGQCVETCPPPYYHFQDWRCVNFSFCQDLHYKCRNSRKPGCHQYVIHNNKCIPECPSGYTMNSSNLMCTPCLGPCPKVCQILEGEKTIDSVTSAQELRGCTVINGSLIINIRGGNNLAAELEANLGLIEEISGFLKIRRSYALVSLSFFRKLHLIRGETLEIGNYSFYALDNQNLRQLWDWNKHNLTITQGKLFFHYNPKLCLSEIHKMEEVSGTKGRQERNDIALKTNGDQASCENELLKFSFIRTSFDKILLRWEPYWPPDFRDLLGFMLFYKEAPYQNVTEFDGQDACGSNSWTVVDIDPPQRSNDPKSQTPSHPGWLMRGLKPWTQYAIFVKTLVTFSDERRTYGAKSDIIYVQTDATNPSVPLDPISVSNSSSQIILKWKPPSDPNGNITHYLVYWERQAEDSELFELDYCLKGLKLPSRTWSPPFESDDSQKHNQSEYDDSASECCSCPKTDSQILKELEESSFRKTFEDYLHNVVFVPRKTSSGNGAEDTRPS
Chain of Insulin receptor (P15127 764-1383 limits assumed): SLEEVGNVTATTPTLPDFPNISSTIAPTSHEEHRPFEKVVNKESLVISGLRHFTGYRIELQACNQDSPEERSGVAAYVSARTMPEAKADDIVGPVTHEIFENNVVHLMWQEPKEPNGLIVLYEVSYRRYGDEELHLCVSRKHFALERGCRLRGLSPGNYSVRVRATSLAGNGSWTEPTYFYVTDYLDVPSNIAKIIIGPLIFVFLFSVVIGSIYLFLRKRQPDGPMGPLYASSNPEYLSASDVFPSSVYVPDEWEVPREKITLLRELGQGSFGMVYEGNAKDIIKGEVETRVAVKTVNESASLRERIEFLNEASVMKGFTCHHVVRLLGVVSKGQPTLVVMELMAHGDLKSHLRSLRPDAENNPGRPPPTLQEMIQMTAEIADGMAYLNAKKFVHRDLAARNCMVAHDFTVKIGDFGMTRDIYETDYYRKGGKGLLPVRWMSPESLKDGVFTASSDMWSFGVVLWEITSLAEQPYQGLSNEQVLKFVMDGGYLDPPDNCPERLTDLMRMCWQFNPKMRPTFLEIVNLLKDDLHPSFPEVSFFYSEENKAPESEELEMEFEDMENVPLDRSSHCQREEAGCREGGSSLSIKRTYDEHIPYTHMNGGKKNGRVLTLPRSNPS

Chain of C-C chemokine receptor type 2 (P41597 whole entry): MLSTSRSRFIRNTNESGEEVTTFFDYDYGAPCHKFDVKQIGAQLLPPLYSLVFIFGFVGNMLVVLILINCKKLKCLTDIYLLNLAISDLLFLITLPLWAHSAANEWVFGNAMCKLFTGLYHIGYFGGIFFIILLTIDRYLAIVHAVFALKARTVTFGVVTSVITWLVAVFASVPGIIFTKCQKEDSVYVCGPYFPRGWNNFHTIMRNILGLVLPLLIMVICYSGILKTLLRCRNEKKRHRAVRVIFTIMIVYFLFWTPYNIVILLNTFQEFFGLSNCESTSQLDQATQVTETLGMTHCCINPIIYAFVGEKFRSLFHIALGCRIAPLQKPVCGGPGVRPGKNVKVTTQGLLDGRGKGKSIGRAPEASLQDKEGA

COc1ccccc1N
Not Active: IC50 [1] | Ki [1] | IC50 [2] | IC50 [3] | IC50 [4] | IC50 [5] | IC50 [6] | IC50 (Insulin receptor)

Cc1c(O)cccc1C(=O)N[C@@H](CSc1ccccc1)[C@H](O)CN1C[C@H]2CCCC[C@H]2C[C@H]1C(=O)NC(C)(C)C
Not Active: IC50 [1] | Ki [1] | IC50 [2] | IC50 [3] | IC50 [4] | IC50 [5] | IC50 [6] | IC50 (Insulin receptor)

ClC(Cl)(Cl)Cl [CARBON TETRACHLORIDE]
Not Active: IC50 [1] | Ki [1] | IC50 [2] | IC50 [3] | IC50 [4] | IC50 [5] | IC50 [6] | IC50 (Insulin receptor)

CC(C)NCC(O)c1ccccc1Cl (stereo unspecified) [CLORPRENALINE]
Not Active: IC50 [1] | Ki [1] | IC50 [2] | IC50 [3] | IC50 [4] | IC50 [5] | IC50 [6] | IC50 (Insulin receptor)

C[C@]12CC[C@@H]3c4ccc(O)cc4CC[C@H]3[C@@H]1C[C@@H](O)[C@@H]2O [ESTRIOL]
Not Active: IC50 [1] | Ki [1] | IC50 [2] | IC50 [3] | IC50 [4] | IC50 [5] | IC50 [6] | IC50 (Insulin receptor)

C#C[C@]1(O)CC[C@H]2[C@@H]3CCC4=CC(=O)CC[C@]4(C)[C@H]3CC[C@@]21C [ETHISTERONE]
Not Active: IC50 [1] | Ki [1] | IC50 [2] | IC50 [3] | IC50 [4] | IC50 [5] | IC50 [6] | IC50 (Insulin receptor)

CC(O)(P(=O)(O)O)P(=O)(O)O [ETIDRONIC ACID]
Not Active: IC50 [1] | Ki [1] | IC50 [2] | IC50 [3] | IC50 [4] | IC50 [5] | IC50 [6] | IC50 (Insulin receptor)

CC(=O)OCC(=O)[C@@]1(O)CC[C@H]2[C@@H]3CCC4=CC(=O)CC[C@]4(C)[C@@]3(F)[C@@H](O)C[C@@]21C [FLUDROCORTISONE ACETATE]
Not Active: IC50 [1] | Ki [1] | IC50 [2] | IC50 [3] | IC50 [4] | IC50 [5] | IC50 [6] | IC50 (Insulin receptor)

CCOC(=O)c1ncn2c1CN(C)C(=O)c1cc(F)ccc1-2 [FLUMAZENIL]
Not Active: IC50 [1] | Ki [1] | IC50 [2] | IC50 [3] | IC50 [4] | IC50 [5] | IC50 [6] | IC50 (Insulin receptor)

CC(=O)OCC(=O)[C@@]12OC(C)(C)O[C@@H]1C[C@H]1[C@@H]3C[C@H](F)C4=CC(=O)C=C[C@]4(C)[C@@]3(F)[C@@H](O)C[C@@]12C [FLUOCINONIDE]
Not Active: IC50 [1] | Ki [1] | IC50 [2] | IC50 [3] | IC50 [4] | IC50 [5] | IC50 [6] | IC50 (Insulin receptor)

Cc1ccc(C)c(OCCCC(C)(C)C(=O)O)c1 [GEMFIBROZIL]
Not Active: IC50 [1] | Ki [1] | IC50 [2] | IC50 [3] | IC50 [4] | IC50 [5] | IC50 [6] | IC50 (Insulin receptor)

CCCCC1=NC2(CCCC2)C(=O)N1Cc1ccc(-c2ccccc2-c2nnn[nH]2)cc1 [IRBESARTAN]
Not Active: IC50 [1] | Ki [1] | IC50 [2] | IC50 [3] | IC50 [4] | IC50 [5] | IC50 [6] | IC50 (Insulin receptor)

C[C@H]1COc2c(N3CCN(C)CC3)c(F)cc3c(=O)c(C(=O)O)cn1c23.C[C@H]1COc2c(N3CCN(C)CC3)c(F)cc3c(=O)c(C(=O)O)cn1c23.O [LEVOFLOXACIN]
Not Active: IC50 [1] | Ki [1] | IC50 [2] | IC50 [3] | IC50 [4] | IC50 [5] | IC50 [6] | IC50 (Insulin receptor)

CS(=O)(=O)Nc1ccc([N+](=O)[O-])cc1Oc1ccccc1 [NIMESULIDE]
Not Active: IC50 [1] | Ki [1] | IC50 [2] | IC50 [3] | IC50 [4] | IC50 [5] | IC50 [6] | IC50 (Insulin receptor)

NC(=O)N1c2ccccc2CC(=O)c2ccccc21 [OXCARBAZEPINE]
Not Active: IC50 [1] | Ki [1] | IC50 [2] | IC50 [3] | IC50 [4] | IC50 [5] | IC50 [6] | IC50 (Insulin receptor)

CCN(CC)CCNC(=O)c1ccc(N)cc1 [PROCAINAMIDE]
Not Active: IC50 [1] | Ki [1] | IC50 [2] | IC50 [3] | IC50 [4] | IC50 [5] | IC50 [6] | IC50 (Insulin receptor)

C[C@]12C=CC(=O)C=C1CC[C@H]1[C@@H]3C[C@@H](O)[C@](O)(C(=O)CO)[C@@]3(C)C[C@H](O)[C@@]12F [TRIAMCINOLONE]
Not Active: IC50 [1] | Ki [1] | IC50 [2] | IC50 [3] | IC50 [4] | IC50 [5] | IC50 [6] | IC50 (Insulin receptor)

Reference: ChEMBL document CHEMBL1909046, “DrugMatrix in vitro pharmacology data”
